Here are results for one molecule from US11524941B2, “Pyrazole compounds as LSD1 inhibitors and applications thereof” (MEDSHINE DISCOVERY INC., priority 2020, dated 2022).

Counter-ions that a name gives are not always drawn.

The test system of this assay is NCI-H1417 cells. Nature of the assay: Proliferation inhibitory activity against NCI-H1417 cells (CellTiter-Glo). It is filed as cell-based. The note with it: Homo sapiens, 240 h, 10 days incubation, starting concentration 10 μM, read-out: IC50 (nM), NCI-H1417 cell proliferation inhibition. The method, then:
Experimental purpose: To detect the inhibitory activity of the compounds against NCI-H1417 cells.
Experimental materials: RPMI 1640 medium, fetal bovine serum, Promega CellTiter-Glo reagent. The NCI-H1417 cell line was purchased from ATCC. Envision multilabel analyzer (PerkinElmer).
Experimental method: The compounds were dissolved to 10 mM, and the compounds were diluted 5 times with DMSO in the compound plate. The starting concentration of the compound was 2 mM, diluted 3 times with Bravo to 10 concentrations. Echo was used to transfer 250 nL to the top and bottom double wells of a blank 384 cell plate, and 250 nL of DMSO/compound was added to a cell suspension of 1000 cells/50 μL per well, and the compounds were diluted 200 times, i.e. the starting concentration was 10 μM. Cell plates were incubated in a carbon dioxide incubator for 10 days. 25 μL of Promega CellTiter-Glo reagent per well was added to the cell plate, and the mixture was shaken for 10 minutes at room temperature to stabilize the luminescence signal. Readings were taken using a PerkinElmer Envision multilabel analyzer.
Data analysis: The equation (Max-Ratio)/(Max-Min)*100% was used to convert the original data into inhibition rate, the IC50 value can be obtained by curve fitting with four parameters. (derived from 205 mode in XLFIT5, iDBS)
(Cellular ATP, detected with luciferase, serves as a proxy for viable cell number.)

For `CC(C)(O)Cn1nnc2cc(-c3cn(CC(=O)N4CCC[C@@H](N)C4)nc3-c3ccc(C#N)c(F)c3)ccc21` [Hydrochloride of compound 22], the IC50 worked out at 107 nM.
